{
  "source": "patent US7410975B2",
  "about": "“Small molecule toll-like receptor (TLR) antagonists” (Coley Pharmaceutical Group, Inc., priority 2003, dated 2008)",
  "data": [
    {"biological_target": "T1, human TLR8 (hTLR8) (Homo sapiens, UniProt Q9NR97)", "T1 construct": "expressed in transfected cells", "T1 sequence (Q9NR97 27-1041)": "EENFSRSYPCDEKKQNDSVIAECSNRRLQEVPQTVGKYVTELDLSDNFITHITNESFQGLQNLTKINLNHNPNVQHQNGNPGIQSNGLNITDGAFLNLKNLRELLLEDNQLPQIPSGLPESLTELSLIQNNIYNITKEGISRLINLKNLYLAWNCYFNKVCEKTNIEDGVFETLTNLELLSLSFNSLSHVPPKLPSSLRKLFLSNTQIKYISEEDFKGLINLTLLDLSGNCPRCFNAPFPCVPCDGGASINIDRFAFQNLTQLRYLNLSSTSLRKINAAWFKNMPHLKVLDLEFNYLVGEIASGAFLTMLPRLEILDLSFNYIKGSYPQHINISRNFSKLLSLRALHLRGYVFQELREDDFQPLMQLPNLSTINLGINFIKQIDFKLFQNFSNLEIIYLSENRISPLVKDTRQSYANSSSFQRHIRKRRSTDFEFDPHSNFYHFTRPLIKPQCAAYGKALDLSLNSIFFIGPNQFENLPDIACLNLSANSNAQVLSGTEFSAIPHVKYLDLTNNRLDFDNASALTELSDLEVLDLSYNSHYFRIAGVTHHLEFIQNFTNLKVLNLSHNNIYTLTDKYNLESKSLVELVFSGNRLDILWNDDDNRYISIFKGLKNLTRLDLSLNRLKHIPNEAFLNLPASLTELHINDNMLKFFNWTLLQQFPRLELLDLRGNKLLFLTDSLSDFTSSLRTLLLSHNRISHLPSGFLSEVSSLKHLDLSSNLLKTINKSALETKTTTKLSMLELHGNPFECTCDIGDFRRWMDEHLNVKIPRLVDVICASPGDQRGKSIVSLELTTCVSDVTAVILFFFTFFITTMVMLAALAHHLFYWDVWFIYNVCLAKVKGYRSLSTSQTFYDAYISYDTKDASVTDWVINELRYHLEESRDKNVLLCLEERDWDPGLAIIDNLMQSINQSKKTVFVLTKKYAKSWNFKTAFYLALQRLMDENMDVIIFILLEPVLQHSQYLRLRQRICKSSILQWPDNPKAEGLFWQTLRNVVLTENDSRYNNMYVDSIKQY", "test": "Antagonist screen, hTLR8-NFκB-293 cells, NF-κB-luciferase reporter, with EC50 of R848", "assay_type": "cell-based", "conditions": "compound at 0.5, 5, 50 μg/ml; EC50 concentration of R848; 16 h; NF-κB-luciferase", "description": "The method is described in greater detail as follows. The cells for each individual cell clone (hTLR3-NFκB-293, hTLR7-NFκB-293, hTLR8-NFκB-293 and hTLR9-NFκB-293) were counted and seeded one day before the stimulation at 1.5×10^4 cells per well in 96-well cell culture plates. To become adherent the cells were incubated after seeding overnight at 37° C. in 5% CO2 humidified air.\nThe screen for each compound was performed at the same time for all of the receptors TLR3, TLR7, TLR8 and TLR9. Up to fifteen test compounds, each assayed in duplicate at each of three different final concentrations (0.5 μg/ml, 5 μg/ml, and 50 μg/ml), were used for 16 h cell stimulation on a single multiwell culture plate. A 4× final concentration master plate was created to prepare the different test compounds before they were added to the cells.\nControls were added as duplicates individually for each cell clone on the cell culture plate. Positive controls were used as follows (final concentrations): 50 μg/ml poly(I:C) for hTLR3-NFκB-293; 8 μM resiquimod (R848) for hTLR7-NFκB-293; 30 μM R848 for hTLR8-NFκB-293; and 2.5 μM CpG-ODN 2006 for hTLR9-NFκB-293. Media alone was used as negative control. After addition of controls and small molecules, the cell clones were additionally stimulated with the EC50 concentration of the appropriate receptor-specific ligand.\nThe mean value of wells H2 and H5 (each with cells and EC50 concentration of the appropriate receptor-specific ligand) divided by the mean of wells H3 and H6 (each with cells alone) yielded the baseline response (i.e., fold induction of luciferase activity) to EC50 concentration of the appropriate receptor-specific ligand.\nAfter 16 h stimulation the supernatant was removed and the cells treated with lysis buffer and stored at −80° C. before measuring.\nFor each screen result a graphical documentation was performed.\nThe baseline result (measured with addition of the EC50 concentration of the receptor-specific ligand) for each cell culture plate was measured as described above. Antagonistic effects were measured by down regulation compared to the baseline. Antagonists were scored as follows: • 13: compounds for which there was clear down regulation at 0.5 μg/ml, 5 μg/ml, and 50 μg/ml; • 12: compounds for which there was clear down regulation at 5 μg/ml and 50 μg/ml; • 11: compounds for which there was clear down regulation only at 50 μg/ml; • —: compounds for which there was no clear down regulation even at 50 μg/ml. Agonists\nResults were expressed as fold induction over baseline luciferase activity measured in the absence of R848. […] Additional screening was performed in like manner using additional small molecules selected from another library or specifically prepared for this purpose. Scoring is reported as above but as applied to TLR8.", "values": [
      {"compound": "COCCCNC(=O)c1ccc2c(c1N)C(=O)c1ccccc1C2=O", "note": "[compound 1337]", "hTLR8 (inhibitory effect, antagonist score)": "11 (compounds for which there was clear down regulation only at 50 μg/ml)"},
      {"compound": "Clc1ccc(C(c2ccccc2Cl)C(Cl)Cl)cc1", "note": "(stereo not shown) [compound 833, Mitotane]", "hTLR8 (inhibitory effect, antagonist score)": "11 (compounds for which there was clear down regulation only at 50 μg/ml)"},
      {"compound": "CC(=O)c1ccc2c(c1)N(CCCN(C)C)c1ccccc1S2.O=C(O)/C=C\\C(=O)O", "note": "[compound 576, Acetopromazinemaleate salt]", "hTLR8 (inhibitory effect, antagonist score)": "— (compounds for which there was no clear down regulation even at 50 μg/ml)"},
      {"compound": "O=C1Nc2ccccc2Oc2ccc([N+](=O)[O-])cc21", "note": "[compound 1352]", "hTLR8 (inhibitory effect, antagonist score)": "— (compounds for which there was no clear down regulation even at 50 μg/ml)"},
      {"compound": "CCCCOC(=O)c1cc([N+](=O)[O-])cc2c1-c1cc(CO)c([NH+]([O-])O)cc1C2=C(C#N)C#N", "note": "(stereo not shown) [compound 939]", "hTLR8 (inhibitory effect, antagonist score)": "— (compounds for which there was no clear down regulation even at 50 μg/ml)"},
      {"compound": "O=C(O)c1cccc2c1/C(=N/O)c1ccccc1-2", "note": "[compound 918]", "hTLR8 (inhibitory effect, antagonist score)": "— (compounds for which there was no clear down regulation even at 50 μg/ml)"},
      {"compound": "COC(=O)C1=CO[C@@H](C)[C@@H]2CN3CCc4c([nH]c5ccccc45)[C@@H]3C[C@H]12", "note": "[compound 593, Tetrahydroalstonine]", "hTLR8 (inhibitory effect, antagonist score)": "— (compounds for which there was no clear down regulation even at 50 μg/ml)"},
      {"compound": "Cl.Cl.OCCN1CCN(CC/C=C2/c3ccccc3Sc3ccc(C(F)(F)F)cc32)CC1", "note": "[compound 340, Flupentixoldihydrochloride cis-(Z)]", "hTLR8 (inhibitory effect, antagonist score)": "11 (compounds for which there was clear down regulation only at 50 μg/ml)"},
      {"compound": "CS(=O)(=O)O.OC(CCN1CCCCC1)(c1ccccc1)c1ccccc1", "note": "[compound 799, Pridinolmethanesulfonate salt]", "hTLR8 (inhibitory effect, antagonist score)": "— (compounds for which there was no clear down regulation even at 50 μg/ml)"},
      {"compound": "Cc1cccc(C)c1NC(=O)CN1CCN(CCCC(c2ccc(F)cc2)c2ccc(F)cc2)CC1", "note": "[compound 381, Lidoflazine]", "hTLR8 (inhibitory effect, antagonist score)": "11 (compounds for which there was clear down regulation only at 50 μg/ml)"},
      {"compound": "CC1NCCc2c1[nH]c1ccccc21.Cl", "note": "(racemic) [compound 619, Eleagnine hydrochloride (R,S)]", "hTLR8 (inhibitory effect, antagonist score)": "— (compounds for which there was no clear down regulation even at 50 μg/ml)"},
      {"compound": "COc1ccc2c(c1)[nH]c1c(C)nccc12.Cl", "note": "[compound 613, harmine hydrochloride]", "hTLR8 (inhibitory effect, antagonist score)": "13 (compounds for which there was clear down regulation at 0.5 μg/ml, 5 μg/ml, and 50 μg/ml)"},
      {"compound": "Cc1c2ccncc2c(C)c2c1[nH]c1ccccc12", "note": "[compound 614, Ellipticine]", "hTLR8 (inhibitory effect, antagonist score)": "11 (compounds for which there was clear down regulation only at 50 μg/ml)"},
      {"compound": "Cl.Cl.Fc1ccc(C(OCCN2CCN(CCCc3ccccc3)CC2)c2ccc(F)cc2)cc1", "note": "[compound 386, GBR 12909hydrochloride]", "hTLR8 (inhibitory effect, antagonist score)": "12 (compounds for which there was clear down regulation at 5 μg/ml and 50 μg/ml)"},
      {"compound": "OCCN1CCN(CCCN2c3ccccc3Sc3ccc(Cl)cc32)CC1", "note": "[compound 125, Perphenazine]", "hTLR8 (inhibitory effect, antagonist score)": "11 (compounds for which there was clear down regulation only at 50 μg/ml)"},
      {"compound": "Flunarizinehydrochloride [compound 312]", "hTLR8 (inhibitory effect, antagonist score)": "— (compounds for which there was no clear down regulation even at 50 μg/ml)"},
      {"compound": "OCc1cc2c(cn1)[nH]c1ccccc12", "note": "[compound 878, 3-hydroxymethyl-beta-carboline]", "hTLR8 (inhibitory effect, antagonist score)": "— (compounds for which there was no clear down regulation even at 50 μg/ml)"},
      {"compound": "CC(NCCC(c1ccccc1)c1ccccc1)c1ccccc1.Cl", "note": "(stereo not shown) [compound 270, Fendiline hydrochloride]", "hTLR8 (inhibitory effect, antagonist score)": "12 (compounds for which there was clear down regulation at 5 μg/ml and 50 μg/ml)"},
      {"compound": "Trifluoperazinedihydrochloride [compound 313]", "hTLR8 (inhibitory effect, antagonist score)": "11 (compounds for which there was clear down regulation only at 50 μg/ml)"}
    ]}
  ]
}
